Experimental data taken from BigSolDB 2.1.

COc1ccc2c(c1)c(CC(=O)O)c(C)n2C(=O)c1ccc(Cl)cc1
solubility (mole fraction)
Settings | 293.15 K | 298.15 K | 303.15 K | 308.15 K | 313.15 K
in 1,4-dioxane | 0.0249 | 0.029 | 0.0343 | 0.0416 | 0.0477
in water | 7.81e-07 | 9.32e-07 | 1.1e-06 | 1.27e-06 | 1.52e-06
